Experimental data as given in ChEMBL document CHEMBL4000146, “Synthesis, antiplasmodial activity and mechanistic studies of pyrimidine-5-carbonitrile and quinoline hybrids” (Eur J Med Chem, 2015).
Active and inactive are the calls of the source. The rule behind the calls is not given here.

Key:
[1] = tested on: Plasmodium falciparum; assay: Resistance index, ratio of IC50 for chloroquine-resistant asexual intraerythrocytic stage of Plasmodium falciparum Dd2 to IC50 for chloroquine-sensitive asexual intraerythrocytic stage of Plasmodium falciparum NF54; assay type: functional
[2] = tested on: L1210; assay: Cytotoxicity against mouse L1210 cells assessed as inhibition of cell proliferation by Coulter counter analysis; assay type: cell-based
[3] = tested on: CCRF-CEM; assay: Cytotoxicity against human CEM cells assessed as inhibition of cell proliferation by Coulter counter analysis; assay type: cell-based
[4] = tested on: HeLa; assay: Cytotoxicity against human HeLa cells assessed as inhibition of cell proliferation by Coulter counter analysis; assay type: cell-based
[5] = Selectivity index, ratio of IC50 for human HeLa cells to IC50 for chloroquine-sensitive asexual intraerythrocytic stage of Plasmodium falciparum NF54; assay type: toxicity, cell-based; conditions: read-out: Ratio IC50
[6] = Selectivity index, ratio of IC50 for human HeLa cells to IC50 for chloroquine-resistant asexual intraerythrocytic stage of Plasmodium falciparum Dd2; assay type: toxicity, cell-based; conditions: read-out: Ratio IC50
[7] = Cytotoxicity against human HEL cells assessed as alteration of normal cell morphology by microscopic analysis; assay type: cell-based
[8] = Cytotoxicity against human HEL cells assessed as inhibition of cell viability by colorimetric formazan-based MTS assay
[9] = Cytotoxicity against human HeLa cells assessed as alteration of normal cell morphology by microscopic analysis; assay type: cell-based
[10] = Cytotoxicity against african green monkey Vero cells assessed as alteration of normal cell morphology by microscopic analysis; assay type: cell-based; conditions: chlorocebus sabaeus
[11] = tested on: Human alphaherpesvirus 1; assay type: functional, cell-based; conditions: Human alphaherpesvirus 1, KOS, HEL
[12] = tested on: Human alphaherpesvirus 2; assay type: functional, cell-based; conditions: Human alphaherpesvirus 2, G, HEL
[13] = tested on: Human alphaherpesvirus 1; assay type: functional, cell-based; conditions: Human alphaherpesvirus 1, KOS, HEL; remark: listed apart in the source
[14] = tested on: unidentified adenovirus; assay type: functional, cell-based; conditions: HEL
[15] = tested on: Coxsackievirus; assay type: functional, cell-based; conditions: B4, HeLa
[16] = tested on: Human orthopneumovirus; assay type: functional, cell-based; conditions: human respiratory syncytial virus, HeLa
[17] = tested on: Human respirovirus 3; assay type: functional; conditions: Human respirovirus 3, Vero
[18] = tested on: Mammalian orthoreovirus 1; assay type: functional; conditions: Mammalian orthoreovirus 1, Vero
[19] = tested on: Sindbis virus; assay type: functional; conditions: Vero
[20] = tested on: Coxsackievirus; assay type: functional; conditions: B4, Vero
[21] = tested on: Punta Toro virus; assay type: functional; conditions: Vero
[22] = tested on: Human betaherpesvirus 5; assay type: functional, cell-based; conditions: Human betaherpesvirus 5, AD169, HEL
[23] = tested on: Human betaherpesvirus 5; assay type: functional, cell-based; conditions: Human betaherpesvirus 5, Davis, HEL
[24] = tested on: Human alphaherpesvirus 3; assay type: functional, cell-based; conditions: Human alphaherpesvirus 3, strain Oka vaccine, HEL
[25] = tested on: Human alphaherpesvirus 3; assay type: functional, cell-based; conditions: Human alphaherpesvirus 3, 07-1, HEL
[26] = Cytotoxicity against MDCK cells assessed as alteration of normal cell morphology by microscopic analysis; assay type: cell-based, Canis lupus familiaris; conditions: dog
[27] = Cytotoxicity against MDCK cells assessed as inhibition of cell viability by colorimetric formazan-based MTS assay; design: species or system Canis lupus familiaris; conditions: dog
[28] = tested on: Plasmodium falciparum; assay: microbe, parasite or virus in culture; conditions: NF54
[29] = tested on: Plasmodium falciparum; assay: microbe, parasite or virus in culture; conditions: Dd2
[30] = tested on: Vaccinia virus; assay: microbe, parasite or virus in culture; conditions: Orthopoxvirus vaccinia, HEL
[31] = tested on: Vesicular stomatitis virus; assay: microbe, parasite or virus in culture; conditions: HEL
[32] = tested on: Vesicular stomatitis virus; assay: microbe, parasite or virus in culture; conditions: HeLa
[33] = tested on: Influenza A virus; assay: microbe, parasite or virus in culture; conditions: H1N1, MDCK
[34] = tested on: Influenza A virus; assay: microbe, parasite or virus in culture; conditions: H3N2, MDCK
[35] = tested on: Influenza B virus; assay: microbe, parasite or virus in culture; conditions: MDCK
[36] = tested on: Heme; assay: Binding affinity to monomeric heme (unknown origin) assessed as monomeric heme-compound complex formation up to 37.3 uM by UV-visible absorption spectrophotometry
[37] = tested on: Plasmodium falciparum; assay: Potency index, ratio of chloroquine IC50 to test compound IC50 for chloroquine-resistant asexual intraerythrocytic stage of Plasmodium falciparum Dd2; assay type: functional
[38] = tested on: Heme; assay: Binding affinity to monomeric heme (unknown origin) assessed as 1:1 stoichiometry for monomeric heme-compound complex at pH 5.6 by Job's plot analysis
[39] = tested on: Heme; assay: Binding affinity to monomeric heme (unknown origin) assessed as 1:1 stoichiometry for monomeric heme-compound complex at pH 7.5 by Job's plot analysis
[40] = tested on: mu-oxodimeric heme; assay: Binding affinity to mu-oxo-heme (unknown origin) assessed as 1:1 stoichiometry for mu-oxo-heme-compound complex at pH 5.8 by Job's plot analysis
[41] = tested on: Heme; assay: Binding affinity to monomeric heme (unknown origin) assessed as 1:1 ratio of monomeric heme-compound complex at 0.24 mM by mass spectra analysis

SMILES | Ratio IC50 [1] | IC50 [2] | IC50 [3] | IC50 [4] | selectivity ratio [5] | selectivity ratio [6] | MCC [7] | CC50 [8] | MCC [9] | MCC [10] | EC50 [11] | EC50 [12] | EC50 [13] | EC50 [14] | EC50 [15] | EC50 [16] | EC50 [17] | EC50 [18] | EC50 [19] | EC50 [20] | also measured
COc1ccc(-c2nc(SC)nc(NCCCCNc3ccnc4cc(Cl)ccc34)c2C#N)cc1OC | 6.65 | 18 µM | 16 µM | 20 µM | 104 | 15.5 | ≥ 100 µM | 84.1 µM | 100 µM | > 100 µM | > 100 µM | > 100 µM | > 100 µM | > 20 µM | > 20 µM | > 20 µM | > 100 µM | > 100 µM | > 100 µM | > 100 µM | EC50 [21]: > 100 µM; EC50 [22]: > 20 µM; EC50 [23]: > 20 µM; EC50 [24]: > 20 µM; EC50 [25]: > 20 µM; MCC [26]: 20 µM; CC50 [27]: 10 µM; IC50 [28]: 0.193 µM; IC50 [29]: 1.28 µM; EC50 [30]: > 100 µM; EC50 [31]: > 100 µM; EC50 [32]: > 20 µM; EC50 [33]: > 4 µM; EC50 [34]: > 4 µM; EC50 [35]: > 4 µM
CSc1nc(-c2ccccc2)c(C#N)c(N2CCN(c3ccnc4cc(Cl)ccc34)CC2)n1 | 1.6 | > 250 µM | > 250 µM | > 250 µM | > 1.9 | > 1.1 | ≥ 100 µM | > 100 µM | > 100 µM | > 100 µM | > 100 µM | > 100 µM | > 100 µM | > 100 µM | > 100 µM | > 100 µM | > 100 µM | > 100 µM | > 100 µM | > 100 µM | EC50 [21]: > 100 µM; EC50 [22]: > 20 µM; EC50 [23]: > 100 µM; EC50 [24]: > 100 µM; EC50 [25]: > 100 µM; MCC [26]: > 100 µM; CC50 [27]: > 100 µM; Activity [36]: inactive; IC50 [28]: 132 µM; IC50 [29]: 212 µM; EC50 [30]: > 100 µM; EC50 [31]: > 100 µM; EC50 [32]: > 100 µM; EC50 [33]: > 100 µM; EC50 [34]: > 100 µM; EC50 [35]: > 100 µM
COc1cc(-c2nc(SC)nc(NCCCCNc3ccnc4cc(Cl)ccc34)c2C#N)cc(OC)c1OC | 0.98 | 3.8 µM | 3.6 µM | 3.4 µM | 37.4 | 37.9 | 4 to 20 µM | 1.5 µM | 20 µM | 4 µM | > 0.8 µM | > 0.8 µM | > 0.8 µM | > 0.8 µM | > 4 µM | > 4 µM | > 0.8 µM | > 0.8 µM | > 0.8 µM | > 0.8 µM | EC50 [21]: > 0.8 µM; EC50 [22]: > 4 µM; EC50 [23]: > 4 µM; EC50 [24]: > 4 µM; EC50 [25]: > 4 µM; MCC [26]: 4 µM; CC50 [27]: 2 µM; Ratio IC50 [37]: 3; IC50 [28]: 0.0909 µM; IC50 [29]: 0.0895 µM; EC50 [30]: > 0.8 µM; EC50 [31]: > 0.8 µM; EC50 [32]: > 4 µM; EC50 [33]: > 0.8 µM; EC50 [34]: > 0.8 µM; EC50 [35]: > 0.8 µM
CSc1nc(NCCCCNc2ccnc3cc(Cl)ccc23)c(C#N)c(-c2ccc([N+](=O)[O-])cc2)n1 | 12.13 | 0.96 µM | 0.76 µM | 0.89 µM | 20.3 | 1.6 | 4 µM | 1.7 µM | 4 µM | 4 µM | > 0.8 µM | > 0.8 µM | > 0.8 µM | > 0.8 µM | > 0.8 µM | > 0.8 µM | > 0.8 µM | > 0.8 µM | > 0.8 µM | > 0.8 µM | EC50 [21]: > 0.8 µM; EC50 [22]: > 0.8 µM; EC50 [23]: > 0.8 µM; EC50 [24]: > 0.8 µM; EC50 [25]: > 0.8 µM; MCC [26]: 4 µM; CC50 [27]: 2 µM; IC50 [28]: 0.0438 µM; IC50 [29]: 0.532 µM; EC50 [30]: > 0.8 µM; EC50 [31]: > 0.8 µM; EC50 [32]: > 0.8 µM; EC50 [33]: > 0.8 µM; EC50 [34]: > 0.8 µM; EC50 [35]: > 0.8 µM
CSc1nc(NCCCCNc2ccnc3cc(Cl)ccc23)c(C#N)c(-c2cccc([N+](=O)[O-])c2)n1 | 0.81 | 2.1 µM | 2.1 µM | 1.1 µM | 16 | 19.7 | ≥ 4 µM | 4.2 µM | 100 µM | 20 µM | > 4 µM | > 4 µM | > 4 µM | > 4 µM | > 20 µM | > 20 µM | > 4 µM | > 4 µM | > 4 µM | > 4 µM | EC50 [21]: > 4 µM; EC50 [22]: > 0.8 µM; EC50 [23]: > 0.8 µM; EC50 [24]: > 0.8 µM; EC50 [25]: > 0.8 µM; MCC [26]: 20 µM; CC50 [27]: 9.6 µM; Activity [38]: Active; Activity [39]: Active; Activity [40]: Active; Activity [41]: Active; Ratio IC50 [37]: 4; IC50 [28]: 0.0685 µM; IC50 [29]: 0.0558 µM; EC50 [30]: > 4 µM; EC50 [31]: > 4 µM; EC50 [32]: > 20 µM; EC50 [33]: > 4 µM; EC50 [34]: > 4 µM; EC50 [35]: > 4 µM
